Publication PMC4658428 (Frontiers in Microbiology, 2015)

How the values were obtained:
Type in all cases: cell-based
[1] = test system: LdtR mutant Y81A, lacZ reporter in B. subtilis
[2] = test system: LdtR mutant R37A, lacZ reporter in B. subtilis
[3] = test system: S. meliloti strain SMP4A (ΔldtRSMc-pBBR1MCS-5::LdtR(T43A))
[4] = test system: S. meliloti strain SMP4B (ΔldtRSMc-pBBR1MCS-5::LdtR(L61A))
[5] = test system: S. meliloti strain SMP4C (ΔldtRSMc-pBBR1MCS-5::LdtR(F64A))

## CCc1oc2ccccc2c1C(=O)c1cc(Br)c(O)c(Br)c1 [benzbromarone]
[1]
  decrease in β-galactosidase activity: around 40%
[2]
  decrease in β-galactosidase activity: around 40%
[3]
  Growth rate constant, k: 0.056 ± 0.004 generations/h
  Mean generation time: 17.9 h
[4]
  Growth rate constant, k: 0.056 ± 0.005 generations/h
  Mean generation time: 17.9 h
[5]
  Growth rate constant, k: 0.058 ± 0.003 generations/h
  Mean generation time: 17.2 h
